Results from US20070173488A1, “Pyrazolothiazole Protein Kinase Modulators” (SGX Pharmaceuticals, Inc., priority 2005, published 2007).

target: T1, T315I Abl (Mus musculus, UniProt P00520, T315I); experiment: cAbl Luminescence-based Enzyme Assay (Kinase-Glo); type: biochemical
T1 construct: The c-Abl T315I KD (kinase domain) was purified as follows; made in house; host or cells: E. coli BL21(DE3) pSA0145 (lambda phosphatase co-expression) or BL21(DE3)Codon+RIL
T1 sequence (P00520 242-493 T315I limits assumed): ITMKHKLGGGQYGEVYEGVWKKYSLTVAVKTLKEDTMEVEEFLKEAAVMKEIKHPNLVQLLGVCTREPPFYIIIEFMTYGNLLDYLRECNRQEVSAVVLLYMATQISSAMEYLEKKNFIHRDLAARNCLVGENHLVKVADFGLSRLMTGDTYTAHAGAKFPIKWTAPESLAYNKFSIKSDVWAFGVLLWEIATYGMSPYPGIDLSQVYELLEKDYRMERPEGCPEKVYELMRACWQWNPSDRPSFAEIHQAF
From the text: Homogeneous luminescence-based inhibitor screening assays were developed for c-Abl, MET, AurA, and PDK1 kinases (among others). Each of these assays made use of an ATP depletion assay (Kinase-Glo™, Promega Corporation, Madison, Wis.) to quantitate kinase activity. The Kinase-Glo™ format uses a thermostable luciferase to generate luminescent signal from ATP remaining in solution following the kinase reaction. The luminescent signal is inversely correlated with the amount of kinase activity.
Dose response was analyzed using the equation: y=min+{(max−min)/(1 +10^[compound]-logIC50)}, where y is the observed initial slope, max=the slope in the absence of inhibitor, min=the slope at infinite inhibitor, and the IC50 is the [compound] that corresponds to ½ the total observed amplitude (Amplitude=max−min).
An open-reading frame for c-Abl was amplified from a Mus musculus (mouse) cDNA library prepared from freshly harvested mouse liver using a commercially available kit (Invitrogen) by PCR using the following primers: […]
The c-Abl T315I KD (kinase domain) was purified as follows. Cells were collected by centrifugation, lysed in diluted cracking buffer (50 mM Tris HCl, pH 7.5, 500 mM KCl, 0.1% Tween 20, 20 mM Imidazole, with sonication, and centrifuged to remove cell debris. The soluble fraction was purified over an IMAC column charged with nickel (Pharmacia, Uppsala, Sweden), and eluted under native conditions with a gradient of 20 mM to 500 mM imidazole in 50 mM Tris, pH7.8, 500 mM NaCl, 10 mM methionine, 10% glycerol. The protein was then further purified by gel filtration using a Superdex 75 preparative grade column equilibrated in GF5 buffer (10 mM HEPES, pH7.5, 10 mM methionine, 500 mM NaCl, 5 mM DTT, and 10% glycerol). Fractions containing the purified c-Abl T315I KD kinase domain were pooled. The protein obtained was 98% pure as judged by electrophoresis on SDS polyacrylamide gels. […] The protein was then dephosphorylated with Shrimp Alkaline Phosphatase (MBI Fermentas, Burlington, Canada) under the following conditions: 100U Shrimp Alkaline Phosphatase/mg of c-Abl T315I KD, 100 mM MgCl2, and 250 mM additional NaCl. The reaction was run overnight at 23° C. The protein was determined to be unphosphorylated by Mass spectroscopic analysis. Any precipitate was spun out and the soluble fraction was separated from reactants by gel filtration using a Superdex 75 preparative grade column equilibrated in GF4 buffer (10 mM HEPES, pH7.5, 10 mM methionine, 150 mM NaCl, 5 mM DTT, and 10% glycerol).
cAbl Luminescence-based Enzyme Assay
Materials: Abl substrate peptide=EAIYAAPFAKKK-OH (Biopeptide, San Diego, Calif.), ATP (Sigma Cat#A-3377, FW=551), HEPES buffer, pH 7.5, Bovine serum albumin (BSA) (Roche 92423420), MgCl2, Staurosporine (Streptomyces sp. Sigma Cat#85660-1MG), white Costar 384-well flat -bottom plate (VWR Cat#29444-088), Abl kinase (see below), Kinase-Glo™ (Promega Cat#V6712).
Stock Solutions: 10 mM Abl substrate peptide (13.4 mg/ml in miliQH2O) stored at −20° C.; 100 mM HEPES buffer, pH 7.5 (5 ml 1M stock+45ml miliQH2O); 10 mM ATP (5.51 mg/ml in dH2O) stored at −20° C. (diluted 50 μl into total of 10 ml miliQH2O daily =50 μM ATP working stock); 1% BSA (1 g BSA in 100 ml 0.1 M HEPES, pH 7.5, stored at −20° C.), 100 μM MgCl2; 200 μM Staurosporine, 2× Kinase-Glo™ reagent (made fresh or stored at −20° C.).
Standard Assay Setup for 384-well format (20 μl kinase reaction, 40 μl detection reaction): 10 mM MgCl2; 100 μM Abl substrate peptide; 0.1% BSA; 1 μl test compound (in DMSO); 0.4 μg/ml Abl kinase domain; 10 μM ATP; 100 mM HEPES buffer. Positive controls contained DMSO with no test compound. Negative controls contained 10 μM staurosporine.
The kinase reactions were initiated at time t=0 by the addition of ATP. Kinase reactions were incubated at 21° C. for 30 min, then 20 μl of Kinase-Glo™ reagent were added to each well to quench the kinase reaction and initiate the luminescence reaction. […]

Question: How did the IC50 turn out when `O=C(Nc1nc2[nH]nc(-n3cncc3-c3ccc4ccccc4c3)c2s1)C1CC1` [Cyclopropanecarboxylic acid [3-(5-naphthalen-2-yl-imidazol-1-yl)-1H-pyrazolo[3,4-d]thiazol-5-yl]-amide] was run?
Answer: 1000 to 10000 nM

Question: Which IC50 does the source give for `O=C(Nc1nc2[nH]nc(-n3cncc3-c3ccccc3)c2s1)C1CC1` [Cyclopropanecarboxylic acid [3-(5-phenyl-imidazol-1-yl)-1H-pyrazolo[3,4-d]thiazol-5-yl]-amide] here?
Answer: 100 to 1000 nM

Question: `O=C(Nc1nc2[nH]nc(-n3cncc3-c3ccccn3)c2s1)C1CC1` [Cyclopropanecarboxylic acid [3-(5-pyridin-2-yl-imidazol-1-yl)-1H-pyrazolo[3,4-d]thiazol-5-yl]-amide] was tested. Which IC50 did it give?
Answer: < 100 nM

Question: Which IC50 does the source give for `O=C(Nc1nc2[nH]nc(-n3cncc3-c3c(Cl)ccc(Cl)c3Cl)c2s1)C1CC1` [Cyclopropanecarboxylic acid {3-[5-(2,3,6-trichloro-phenyl)-imidazol-1-yl]-1H-pyrazolo[3,4-d]thiazol-5-yl}-amide] here?
Answer: < 100 nM

Question: With `O=C(Nc1nc2[nH]nc(-n3cncc3-c3cccc(F)c3F)c2s1)C1CC1` [Cyclopropanecarboxylic acid {3-[5-(2,3-difluoro-phenyl)-imidazol-1-yl]-1H-pyrazolo[3,4-d]thiazol-5-yl}-amide] as the molecule, how does the IC50 read?
Answer: < 100 nM

Question: Which IC50 does the source give for `O=C(Nc1nc2[nH]nc(-n3cncc3-c3c(Cl)cccc3Cl)c2s1)C1CC1` [Cyclopropanecarboxylic acid {3-[5-(2,6-dichloro-phenyl)-imidazol-1-yl]-1H-pyrazolo[3,4-d]thiazol-5-yl}-amide] here?
Answer: < 100 nM

Question: For `O=C(Nc1nc2[nH]nc(-n3cncc3-c3ccccc3Cl)c2s1)C1CC1` [Cyclopropanecarboxylic acid {3-[5-(2-chloro-phenyl)-imidazol-1-yl]-1H-pyrazolo[3,4-d]thiazol-5-yl}-amide], which IC50 is on record?
Answer: < 100 nM

Question: For `NC(=O)COc1ccc(-c2cncn2-c2n[nH]c3nc(NC(=O)C4CC4)sc23)c(Cl)c1` [Cyclopropanecarboxylic acid {3-[5-(4-carbamoylmethoxy-2-chloro-phenyl)-imidazol-1-yl]-1H-pyrazolo[3,4-d]thiazol-5-yl}-amide], which IC50 is on record?
Answer: < 100 nM
